Experimental findings from paper PMC10892423 (Pharmaceutics, 2024) are described below.

What all share (format): biochemical
One assay deals with T1, OXA-48 (Klebsiella pneumoniae, UniProt Q6XEC0).
T1 construct: Genes encoding OXA-48 (residues 23–265) and VIM-2 (residues 27–266) were custom-synthesized; made in house
The experiment in a line: β-lactamase inhibition, nitrocefin hydrolysis. From the text: (§1) Recombinant AmpC from Escherichia coli was produced according to a previously reported protocol. KPC-2 and NDM-1 […] were purchased from LifeSpan Biosciences, Inc. (Lynnwood, WA, USA) (LS-G26598) and RayBiotech, Inc. (Peachtree Corners, GA, USA) (230-00554), respectively. Genes encoding OXA-48 (residues 23–265) and VIM-2 (residues 27–266) were custom-synthesized (Bioneer Inc., Seoul, Republic of Korea) and expressed as previously described. The β-lactamase inhibitory activity of the title compounds was then determined according to the previously reported methods. Briefly, equal volumes (100 μL) of the title compounds (70–0.1 μM in PBS) and diluted enzyme stock were mixed (final concentration 2% of DMSO in 200 μL) in 96-well plates, which were then incubated at 37 °C for 20 min. The incubated mixture was added to each well containing substrates (nitrocefin for AmpC, KPC-2, OXA-48, and VIM-2; and imipenem for NDM-1) of final concentrations of 70 μM for nitrocefin and 100 μM for imipenem. Substrate hydrolysis was monitored at 486 nm (nitrocefin) or 300 nm (imipenem) for 15 min, using a Cytation 5 imaging multimode reader (BioTek Instruments Inc., Winooski, VT, USA). At the plateau level of hydrolysis, the corresponding rates of hydrolysis were compared to those obtained without inhibitors (100%) to determine the percentage of enzyme inhibition at each concentration of the title compounds. The IC50 values of the compounds were derived from sigmoidal dose–response curves, using GraphPad Prism 5 (GraphPad Software, Boston, MA, USA).

The next assay addresses T2, AmpC (Escherichia coli, UniProt P00811).
T2 construct: made in house
The experiment in a line: β-lactamase inhibition, nitrocefin hydrolysis.
Text: as §1

A further assay addresses T3, VIM-2 (Escherichia coli, UniProt Q5U7L7).
T3 construct: Genes encoding OXA-48 (residues 23–265) and VIM-2 (residues 27–266) were custom-synthesized; made in house
The experiment in a line: β-lactamase inhibition, nitrocefin hydrolysis.
Text: as §1

The next assay concerns the target T4, KPC-2 (Klebsiella pneumoniae, UniProt Q9F663).
T4 construct: purchased LifeSpan Biosciences, Inc. LS-G26598
The experiment in a line: β-lactamase inhibition, nitrocefin hydrolysis.
Text: as §1

For another assay, the target named is T5, NDM-1 (Klebsiella pneumoniae, UniProt C7C422).
T5 construct: purchased RayBiotech, Inc. 230-00554
The experiment in a line: β-lactamase inhibition, imipenem hydrolysis.
Text: as §1

[1] abbreviates: nitrocefin substrate, read-out: β-Lactamases, IC50 OXA-48.
Setting [2] is: nitrocefin substrate, read-out: β-Lactamases, IC50 VIM-2.
Where [3] appears, read: nitrocefin substrate, read-out: β-Lactamases, IC50 KPC-2.
Where [4] appears, read: imipenem substrate, read-out: β-Lactamases, IC50 NDM-1.

Molecules are shown by their SMILES. Like-named read-outs stand apart in the source and are kept apart here.

T5 sequence (C7C422 29-270, looked up, species assumed): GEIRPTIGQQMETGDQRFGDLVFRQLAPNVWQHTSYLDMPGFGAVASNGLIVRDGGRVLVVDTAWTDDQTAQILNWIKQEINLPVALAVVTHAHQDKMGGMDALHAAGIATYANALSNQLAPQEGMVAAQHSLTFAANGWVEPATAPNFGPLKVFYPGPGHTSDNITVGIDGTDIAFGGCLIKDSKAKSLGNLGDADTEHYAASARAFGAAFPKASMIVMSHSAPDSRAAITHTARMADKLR
T4 sequence (Q9F663 25-293, looked up): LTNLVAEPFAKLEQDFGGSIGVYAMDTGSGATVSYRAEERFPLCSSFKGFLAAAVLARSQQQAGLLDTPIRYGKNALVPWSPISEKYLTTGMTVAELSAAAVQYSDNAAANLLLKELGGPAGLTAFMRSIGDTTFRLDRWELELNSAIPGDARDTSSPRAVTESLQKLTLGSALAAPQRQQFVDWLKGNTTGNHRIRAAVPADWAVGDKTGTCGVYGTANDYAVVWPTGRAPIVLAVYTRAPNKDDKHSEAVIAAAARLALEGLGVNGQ
T1 sequence (Q6XEC0 23-265 limits assumed): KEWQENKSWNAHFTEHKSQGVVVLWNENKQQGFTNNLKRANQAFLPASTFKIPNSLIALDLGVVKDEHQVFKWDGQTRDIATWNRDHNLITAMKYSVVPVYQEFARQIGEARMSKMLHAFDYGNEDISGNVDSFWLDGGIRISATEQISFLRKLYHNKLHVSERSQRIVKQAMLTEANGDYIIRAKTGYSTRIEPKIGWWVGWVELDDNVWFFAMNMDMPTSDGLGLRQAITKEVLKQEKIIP
T2 sequence (P00811 20-377): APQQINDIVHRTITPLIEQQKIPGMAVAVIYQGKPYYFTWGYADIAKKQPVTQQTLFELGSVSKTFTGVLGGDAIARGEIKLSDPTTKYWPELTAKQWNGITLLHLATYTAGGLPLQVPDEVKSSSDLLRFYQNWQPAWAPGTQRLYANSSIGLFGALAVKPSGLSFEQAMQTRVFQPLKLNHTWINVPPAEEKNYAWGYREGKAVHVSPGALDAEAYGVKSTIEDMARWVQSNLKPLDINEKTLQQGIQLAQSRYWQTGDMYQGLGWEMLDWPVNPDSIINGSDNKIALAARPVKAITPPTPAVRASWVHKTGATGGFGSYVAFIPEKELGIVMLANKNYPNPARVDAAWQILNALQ

For the compound `CC(C)(C)CC(=O)Oc1c(-c2ccc(F)c(F)c2)oc2cc(O)cc(O)c2c1=O` [Compound 3], the half-maximal inhibitory concentration (IC50) on OXA-48 (setting [1]) worked out at 21.2 µM; against AmpC, 19.2 µM; on VIM-2 (setting [2]), 20.3 µM; on KPC-2 (setting [3]), 22.2 µM; at NDM-1 (setting [4]) it was 24.6 µM.
As for `CC(C)CCOc1c(-c2ccc(F)c(F)c2)oc2cc(O)cc(O)c2c1=O` [Compound 24], the IC50 at OXA-48 (setting [1]) is 19.1 µM; against AmpC it was more than 50 µM; on VIM-2 (setting [2]), 42.1 µM; on KPC-2 (setting [3]), 39.4 µM; on NDM-1 (setting [4]), more than 50 µM.
For the compound `CC(C)(C)C(=O)OCOc1c(-c2ccc(F)c(F)c2)oc2cc(O)cc(O)c2c1=O` [Compound 4], the 50% inhibitory concentration (IC50) was 28.7 µM at OXA-48 (setting [1]); 25.4 µM against AmpC; 19.3 µM at VIM-2 (setting [2]); 33.2 µM at KPC-2 (setting [3]); 15.7 µM on NDM-1 (setting [4]).
Turning to `O=c1c(OCCO)c(-c2ccc(F)c(F)c2)oc2cc(O)cc(O)c12` [Compound 8], the IC50 on OXA-48 (setting [1]) is more than 100 µM; at AmpC, more than 50 µM; at VIM-2 (setting [2]), more than 100 µM; at KPC-2 (setting [3]), more than 50 µM; at NDM-1 (setting [4]), more than 50 µM.
Take `O=c1c(OCCCC2CCCC2)c(-c2ccc(F)c(F)c2)oc2cc(O)cc(O)c12` [Compound 29]: the IC50 was 5.5 µM at OXA-48 (setting [1]); more than 50 µM against AmpC; 5.1 µM at VIM-2 (setting [2]); 28.3 µM at KPC-2 (setting [3]); 26.7 µM on NDM-1 (setting [4]).
In the case of `CC(C)c1ccc(COc2c(-c3ccc(F)c(F)c3)oc3cc(O)cc(O)c3c2=O)cc1` [Compound 7], the IC50 on OXA-48 (setting [1]) is 6 µM; on AmpC it was more than 50 µM; at VIM-2 (setting [2]), 13.1 µM; at KPC-2 (setting [3]), 21.5 µM; on NDM-1 (setting [4]), 16.7 µM.
Taken in the same sequence, the figures for `O=c1c(OCCOCCO)c(-c2ccc(F)c(F)c2)oc2cc(O)cc(O)c12` [Compound 9] were more than 100 µM, more than 50 µM, more than 100 µM, more than 50 µM and more than 50 µM.
With `O=c1c(OCC2CCCC2)c(-c2ccc(F)c(F)c2)oc2cc(O)cc(O)c12` [Compound 28], the concentration for half-maximal inhibition (IC50) on OXA-48 (setting [1]) is 9.2 µM; at AmpC it was more than 50 µM; at VIM-2 (setting [2]), 7.8 µM; on KPC-2 (setting [3]), 40.8 µM; at NDM-1 (setting [4]) it was 21.8 µM.
Taken in the same sequence, the figures for `O=c1c(OCCN2CCCCC2)c(-c2ccc(F)c(F)c2)oc2cc(O)cc(O)c12` [Compound 19] were more than 100 µM, more than 50 µM, more than 100 µM, more than 50 µM and more than 50 µM.
For the compound `O=c1c(OCCN2CCNCC2)c(-c2ccc(F)c(F)c2)oc2cc(O)cc(O)c12` [Compound 17], the half-maximal inhibitory concentration (IC50) is more than 100 µM on OXA-48 (setting [1]); more than 50 µM against AmpC; more than 100 µM on VIM-2 (setting [2]); more than 50 µM at KPC-2 (setting [3]); more than 50 µM on NDM-1 (setting [4]).
For the compound `CN(C)CCOc1c(-c2ccc(F)c(F)c2)oc2cc(O)cc(O)c2c1=O` [Compound 13], the IC50 is more than 100 µM at OXA-48 (setting [1]); more than 50 µM against AmpC; more than 100 µM on VIM-2 (setting [2]); more than 50 µM on KPC-2 (setting [3]); more than 50 µM on NDM-1 (setting [4]).
As to `O=c1c(OCCC2CC2)c(-c2ccc(F)c(F)c2)oc2cc(O)cc(O)c12` [Compound 25], the IC50 is 11.4 µM at OXA-48 (setting [1]); more than 50 µM at AmpC; 13.9 µM on VIM-2 (setting [2]); 22.8 µM on KPC-2 (setting [3]); 22.7 µM on NDM-1 (setting [4]).
The matching figures for `O=c1c(OCCOCCOCCO)c(-c2ccc(F)c(F)c2)oc2cc(O)cc(O)c12` [Compound 10]: more than 100 µM, more than 50 µM, more than 100 µM, more than 50 µM and more than 50 µM.
`O=c1c(OCCC2CCNCC2)c(-c2ccc(F)c(F)c2)oc2cc(O)cc(O)c12` [Compound 31]: the IC50 was more than 100 µM at OXA-48 (setting [1]); more than 50 µM at AmpC; more than 100 µM on VIM-2 (setting [2]); more than 50 µM on KPC-2 (setting [3]); more than 50 µM at NDM-1 (setting [4]).
With `CN1CCN(CCOc2c(-c3ccc(F)c(F)c3)oc3cc(O)cc(O)c3c2=O)CC1` [Compound 16], the IC50 at OXA-48 (setting [1]) is more than 100 µM; on AmpC, more than 50 µM; on VIM-2 (setting [2]), more than 100 µM; at KPC-2 (setting [3]), more than 50 µM; on NDM-1 (setting [4]) it was more than 50 µM.
Take `O=c1c(OCCc2cccs2)c(-c2ccc(F)c(F)c2)oc2cc(O)cc(O)c12` [Compound 12]: the half-maximal inhibitory concentration (IC50) was more than 100 µM on OXA-48 (setting [1]); more than 50 µM against AmpC; more than 100 µM on VIM-2 (setting [2]); more than 50 µM at KPC-2 (setting [3]); more than 50 µM at NDM-1 (setting [4]).
`NCCOCCOc1c(-c2ccc(F)c(F)c2)oc2cc(O)cc(O)c2c1=O` [Compound 11]: the IC50 on OXA-48 (setting [1]) is more than 100 µM; at AmpC, more than 50 µM; on VIM-2 (setting [2]) it was more than 100 µM; at KPC-2 (setting [3]) it was more than 50 µM; on NDM-1 (setting [4]), more than 50 µM.
Consider `O=c1c(OCCN2CCCC2)c(-c2ccc(F)c(F)c2)oc2cc(O)cc(O)c12` [Compound 18], for which the 50% inhibitory concentration (IC50) at OXA-48 (setting [1]) was more than 100 µM; against AmpC it was more than 50 µM; at VIM-2 (setting [2]) it was more than 100 µM; at KPC-2 (setting [3]), more than 50 µM; at NDM-1 (setting [4]), more than 50 µM.
As to `CC(C)OC(=O)OCOc1c(-c2ccc(F)c(F)c2)oc2cc(O)cc(O)c2c1=O` [Compound 5], the IC50 is 42.7 µM at OXA-48 (setting [1]); more than 50 µM at AmpC; more than 100 µM on VIM-2 (setting [2]); more than 50 µM on KPC-2 (setting [3]); more than 50 µM at NDM-1 (setting [4]).
On to `O=c1c(OCCN2CC2)c(-c2ccc(F)c(F)c2)oc2cc(O)cc(O)c12` [Compound 14], for which the 50% inhibitory concentration (IC50) at OXA-48 was more than 100 µM; on AmpC, more than 50 µM; against VIM-2, more than 100 µM; at KPC-2 it was more than 50 µM; against NDM-1, more than 50 µM.
Take `C[N+](C)(CCOc1c(-c2ccc(F)c(F)c2)oc2cc(O)cc(O)c2c1=O)CC(=O)[O-]` [Compound 15]: the IC50 at OXA-48 (setting [1]) is more than 100 µM; on AmpC, more than 50 µM; on VIM-2 (setting [2]), more than 100 µM; at KPC-2 (setting [3]), more than 50 µM; on NDM-1 (setting [4]), more than 50 µM.
Regarding `CC(C)(C)c1ccc(COc2c(-c3ccc(F)c(F)c3)oc3cc(O)cc(O)c3c2=O)cc1` [Compound 6], the 50% inhibitory concentration (IC50) was 37.8 µM on OXA-48 (setting [1]); more than 50 µM at AmpC; more than 100 µM on VIM-2 (setting [2]); more than 50 µM on KPC-2 (setting [3]); 14.1 µM on NDM-1 (setting [4]).
For `O=c1c(OCCC2CCOCC2)c(-c2ccc(F)c(F)c2)oc2cc(O)cc(O)c12` [Compound 30], the IC50 at OXA-48 (setting [1]) is 35.9 µM; against AmpC it was more than 50 µM; at VIM-2 (setting [2]) it was more than 100 µM; at KPC-2 (setting [3]), more than 50 µM; on NDM-1 (setting [4]) it was more than 50 µM.
On to `CN1CCCC1CCOc1c(-c2ccc(F)c(F)c2)oc2cc(O)cc(O)c2c1=O` (centres unmarked) [Compound 21], for which the IC50 on OXA-48 (setting [1]) was more than 100 µM; against AmpC, more than 50 µM; on VIM-2 (setting [2]), more than 100 µM; at KPC-2 (setting [3]) it was more than 50 µM; at NDM-1 (setting [4]) it was more than 50 µM.
For `O=c1c(OCCN2CCOCC2)c(-c2ccc(F)c(F)c2)oc2cc(O)cc(O)c12` [Compound 20], the IC50 on OXA-48 (setting [1]) is more than 100 µM; against AmpC, more than 50 µM; at VIM-2 (setting [2]), more than 100 µM; on KPC-2 (setting [3]), more than 50 µM; on NDM-1 (setting [4]) it was more than 50 µM.
